Molecular target: T1, Angiotensin II Receptor (Bos taurus, UniProt P25104)
T1 construct: The brownish tissue forming the adrenal cortex is scraped off and finely minced with scissors before homogenization; from tissue; host or cells: beef adrenal cortex, microsomal (100,000 x g) membranes; adrenals from a local slaughter house (Maxwell-Cohen)
T1 sequence (P25104 1-359): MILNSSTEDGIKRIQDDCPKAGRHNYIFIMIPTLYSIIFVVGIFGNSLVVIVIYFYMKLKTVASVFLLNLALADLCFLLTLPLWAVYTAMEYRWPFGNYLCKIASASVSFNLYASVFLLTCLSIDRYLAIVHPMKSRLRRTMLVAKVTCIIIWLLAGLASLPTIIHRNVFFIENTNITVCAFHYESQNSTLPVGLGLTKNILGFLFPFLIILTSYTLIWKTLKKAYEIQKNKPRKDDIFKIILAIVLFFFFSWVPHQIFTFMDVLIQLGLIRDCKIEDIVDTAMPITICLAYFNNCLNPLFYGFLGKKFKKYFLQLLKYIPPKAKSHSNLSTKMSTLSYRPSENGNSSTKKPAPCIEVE
Assay: Receptor Binding Assay, binding of [125I](Sar1,Ile8)AngII to beef adrenal cortex membranes
Details: radioligand; non-specific binding with 1.0 uM unlabeled (Sar1,Ile8)AngII
Description: Beef adrenals are obtained from a local slaughter house (Maxwell-Cohen). [^125 I](Sar^1,Ile^8)AngII, S.A. 2200 Ci/mmole, is purchased from Dupont (NEN®, Boston, Mass.).
Approximately sixteen (16) to twenty (20) beef adrenal glands are processed as follows: fresh adrenal glands received on crushed ice are cleaned of fatty tissues and the tough membranes encapsulating the glands are removed and discarded. The brownish tissue forming the adrenal cortex is scraped off and finely minced with scissors before homogenization. Care is taken to avoid contamination with medullary tissue during dissection. The scraped cortices are suspended in twenty volumes of an ice-cold buffer medium consisting of 10 mM Tris.HCl (pH 7.4 at 22° C.) and containing 1.0 mM EDTA and 0.2M sucrose. Unless otherwise indicated, all subsequent operations are done at 4° C. […] The homogenate is centrifuged first at low speed (3,000×g) for 10 min. […] The pelleted membrane is reconstituted in 50.0 mM Tris.HCl buffer containing 0.1 mM of phenylmethylsulfonyl fluoride (PMSF) to give approximately a protein concentration of 2.5 mg per ml of tissue suspension. The membrane preparation is finally aliquoted in 1.0 ml volumes and stored at -70° C. until use in the binding assays. […]

- Specific binding: greater than 90%
Substance: [^125 I](Sar^1, Ile^8) AngII [reference compound]
